Data: ChEMBL document CHEMBL1139255, “Structure-activity relationship studies of 5-benzylaminoimidazo[1,2-c]pyrimidine-8-carboxamide derivatives as potent, highly selective ZAP-70 kinase inhibitors” (Bioorg Med Chem, 2009)
pIC50: −log10 of the molar value.

Legend:
[1] = target: Tyrosine-protein kinase Lck (Homo sapiens, UniProt P06239); assay: Inhibition of Lck
[2] = target: T1, Epidermal growth factor receptor (Homo sapiens, UniProt P00533); assay: Inhibition of EGFR at 10 uM
[3] = target: Mitogen-activated protein kinase 14 (Homo sapiens, UniProt Q16539); assay: Inhibition of p38 alpha
Chain of Mitogen-activated protein kinase 14 (Q16539 whole entry): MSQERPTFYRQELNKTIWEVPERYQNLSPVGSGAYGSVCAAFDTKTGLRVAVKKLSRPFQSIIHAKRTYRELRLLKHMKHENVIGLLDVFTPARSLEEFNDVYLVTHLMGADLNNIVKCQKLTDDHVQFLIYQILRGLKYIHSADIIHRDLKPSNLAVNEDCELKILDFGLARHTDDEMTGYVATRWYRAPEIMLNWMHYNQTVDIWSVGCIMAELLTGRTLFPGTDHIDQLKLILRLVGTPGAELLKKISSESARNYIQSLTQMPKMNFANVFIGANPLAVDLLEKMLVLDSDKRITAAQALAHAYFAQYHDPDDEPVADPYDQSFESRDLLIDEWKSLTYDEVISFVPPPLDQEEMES

[4] = target: T2, Tyrosine-protein kinase ZAP-70 (Homo sapiens, UniProt P43403); assay: Inhibition of human ZAP70 (Leu325 to Ala619) expressed in Sf9 cells by coupled spectrophotometric enzyme assay; format: cell-based
T2 sequence (P43403 whole entry): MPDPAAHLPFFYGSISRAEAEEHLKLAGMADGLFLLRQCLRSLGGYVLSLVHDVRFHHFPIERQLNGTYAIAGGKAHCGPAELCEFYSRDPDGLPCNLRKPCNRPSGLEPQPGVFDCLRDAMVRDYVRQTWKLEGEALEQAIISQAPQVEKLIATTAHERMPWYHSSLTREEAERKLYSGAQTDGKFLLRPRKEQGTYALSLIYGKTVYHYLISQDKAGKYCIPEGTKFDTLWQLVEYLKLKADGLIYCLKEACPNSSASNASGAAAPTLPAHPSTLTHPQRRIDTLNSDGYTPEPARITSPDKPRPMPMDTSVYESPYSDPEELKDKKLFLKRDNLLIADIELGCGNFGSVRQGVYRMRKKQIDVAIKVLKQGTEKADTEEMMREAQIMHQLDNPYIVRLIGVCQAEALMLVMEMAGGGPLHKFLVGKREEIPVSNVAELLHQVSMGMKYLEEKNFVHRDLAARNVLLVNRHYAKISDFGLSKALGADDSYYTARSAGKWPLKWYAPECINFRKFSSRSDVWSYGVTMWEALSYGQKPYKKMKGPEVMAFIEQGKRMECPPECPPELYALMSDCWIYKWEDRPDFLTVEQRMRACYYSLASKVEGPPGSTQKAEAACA

[5] = target: T3, Mitogen-activated protein kinase 8 (Homo sapiens, UniProt P45983); assay: Inhibition of JNK1 at 10 uM
T3 sequence (P45983 whole entry): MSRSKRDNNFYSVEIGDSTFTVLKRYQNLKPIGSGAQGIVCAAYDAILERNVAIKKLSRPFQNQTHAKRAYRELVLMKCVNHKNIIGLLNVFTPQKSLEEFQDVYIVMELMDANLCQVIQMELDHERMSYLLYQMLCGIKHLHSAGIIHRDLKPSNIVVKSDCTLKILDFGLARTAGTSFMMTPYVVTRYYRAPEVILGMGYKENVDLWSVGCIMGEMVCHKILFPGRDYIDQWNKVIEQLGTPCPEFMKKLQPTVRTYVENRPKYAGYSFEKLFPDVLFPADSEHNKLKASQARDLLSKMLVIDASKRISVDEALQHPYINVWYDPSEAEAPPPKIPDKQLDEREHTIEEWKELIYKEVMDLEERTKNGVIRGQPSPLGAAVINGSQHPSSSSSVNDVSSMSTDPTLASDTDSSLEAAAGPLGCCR

[6] = target: Proto-oncogene tyrosine-protein kinase Src (Homo sapiens, UniProt P12931); assay: Inhibition of Src
Chain of Proto-oncogene tyrosine-protein kinase Src (P12931 2-536 limits assumed): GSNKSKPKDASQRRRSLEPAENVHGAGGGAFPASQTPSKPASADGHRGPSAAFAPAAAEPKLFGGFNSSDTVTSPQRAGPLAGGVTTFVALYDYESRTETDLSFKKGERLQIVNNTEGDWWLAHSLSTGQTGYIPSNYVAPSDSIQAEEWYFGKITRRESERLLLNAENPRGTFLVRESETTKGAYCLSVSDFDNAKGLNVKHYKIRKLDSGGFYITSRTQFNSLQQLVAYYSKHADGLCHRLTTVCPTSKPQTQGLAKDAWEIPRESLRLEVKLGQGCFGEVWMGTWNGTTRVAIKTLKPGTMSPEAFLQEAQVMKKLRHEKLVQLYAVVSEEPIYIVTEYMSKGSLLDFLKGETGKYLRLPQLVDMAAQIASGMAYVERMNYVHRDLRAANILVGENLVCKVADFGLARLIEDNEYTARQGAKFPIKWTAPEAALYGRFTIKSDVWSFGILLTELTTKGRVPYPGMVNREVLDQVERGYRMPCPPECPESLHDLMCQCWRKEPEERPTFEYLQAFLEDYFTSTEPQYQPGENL

[7] = target: Protein kinase C beta type (Homo sapiens, UniProt P05771); assay: Inhibition of PKC beta2
Chain of Protein kinase C beta type (P05771 whole entry): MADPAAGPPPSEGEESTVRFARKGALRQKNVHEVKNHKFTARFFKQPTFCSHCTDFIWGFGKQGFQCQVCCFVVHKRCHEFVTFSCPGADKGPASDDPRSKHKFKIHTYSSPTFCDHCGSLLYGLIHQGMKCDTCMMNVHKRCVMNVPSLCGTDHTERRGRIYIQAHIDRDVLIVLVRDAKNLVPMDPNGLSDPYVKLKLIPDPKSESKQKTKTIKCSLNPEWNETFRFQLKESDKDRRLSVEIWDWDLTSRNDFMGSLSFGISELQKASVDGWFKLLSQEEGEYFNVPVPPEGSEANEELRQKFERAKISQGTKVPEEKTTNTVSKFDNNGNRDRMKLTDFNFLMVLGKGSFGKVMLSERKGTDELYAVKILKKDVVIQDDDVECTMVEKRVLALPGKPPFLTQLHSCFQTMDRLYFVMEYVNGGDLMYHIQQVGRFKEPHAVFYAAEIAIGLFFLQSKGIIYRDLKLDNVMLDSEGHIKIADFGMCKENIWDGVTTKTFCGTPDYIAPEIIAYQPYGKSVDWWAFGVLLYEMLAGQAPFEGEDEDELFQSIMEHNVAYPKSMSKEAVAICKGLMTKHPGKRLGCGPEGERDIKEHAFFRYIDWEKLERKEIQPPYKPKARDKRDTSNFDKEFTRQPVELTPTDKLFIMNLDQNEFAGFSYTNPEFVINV

[8] = target: Mitogen-activated protein kinase 3 (Homo sapiens, UniProt P27361); assay: Inhibition of ERK1
Chain of Mitogen-activated protein kinase 3 (P27361 whole entry): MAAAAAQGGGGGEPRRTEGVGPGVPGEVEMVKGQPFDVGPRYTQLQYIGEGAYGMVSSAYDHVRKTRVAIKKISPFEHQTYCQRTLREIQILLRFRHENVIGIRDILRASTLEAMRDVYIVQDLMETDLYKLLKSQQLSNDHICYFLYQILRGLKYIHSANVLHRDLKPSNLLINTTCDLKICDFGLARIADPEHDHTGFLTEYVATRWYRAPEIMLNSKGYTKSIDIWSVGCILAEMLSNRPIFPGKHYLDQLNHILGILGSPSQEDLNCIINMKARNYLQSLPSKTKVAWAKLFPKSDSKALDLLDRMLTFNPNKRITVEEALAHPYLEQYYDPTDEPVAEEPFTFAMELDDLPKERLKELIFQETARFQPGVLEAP

[9] = target: T3, Mitogen-activated protein kinase 8; assay: Inhibition of JNK1
[10] = target: T1, Epidermal growth factor receptor; assay: Inhibition of EGFR
[11] = target: Tyrosine-protein kinase SYK (Homo sapiens) (UniProt P43405); assay: Inhibition of Syk

Chain of Tyrosine-protein kinase Lck (P06239 whole entry): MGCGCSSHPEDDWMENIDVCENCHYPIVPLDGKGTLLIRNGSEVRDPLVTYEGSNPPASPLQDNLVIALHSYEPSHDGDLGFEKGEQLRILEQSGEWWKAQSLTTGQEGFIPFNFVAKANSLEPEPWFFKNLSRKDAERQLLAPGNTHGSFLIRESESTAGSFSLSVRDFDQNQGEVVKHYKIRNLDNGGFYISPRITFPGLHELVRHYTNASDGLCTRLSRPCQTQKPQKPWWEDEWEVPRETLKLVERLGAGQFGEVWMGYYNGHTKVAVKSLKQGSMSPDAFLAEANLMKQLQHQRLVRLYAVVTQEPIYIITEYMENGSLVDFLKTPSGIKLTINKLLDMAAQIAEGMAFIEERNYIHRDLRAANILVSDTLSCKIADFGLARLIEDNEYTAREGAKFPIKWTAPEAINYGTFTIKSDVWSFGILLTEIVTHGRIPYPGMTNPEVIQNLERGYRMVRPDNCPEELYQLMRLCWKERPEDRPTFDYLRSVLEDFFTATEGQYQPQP
T1 sequence (P00533 whole entry): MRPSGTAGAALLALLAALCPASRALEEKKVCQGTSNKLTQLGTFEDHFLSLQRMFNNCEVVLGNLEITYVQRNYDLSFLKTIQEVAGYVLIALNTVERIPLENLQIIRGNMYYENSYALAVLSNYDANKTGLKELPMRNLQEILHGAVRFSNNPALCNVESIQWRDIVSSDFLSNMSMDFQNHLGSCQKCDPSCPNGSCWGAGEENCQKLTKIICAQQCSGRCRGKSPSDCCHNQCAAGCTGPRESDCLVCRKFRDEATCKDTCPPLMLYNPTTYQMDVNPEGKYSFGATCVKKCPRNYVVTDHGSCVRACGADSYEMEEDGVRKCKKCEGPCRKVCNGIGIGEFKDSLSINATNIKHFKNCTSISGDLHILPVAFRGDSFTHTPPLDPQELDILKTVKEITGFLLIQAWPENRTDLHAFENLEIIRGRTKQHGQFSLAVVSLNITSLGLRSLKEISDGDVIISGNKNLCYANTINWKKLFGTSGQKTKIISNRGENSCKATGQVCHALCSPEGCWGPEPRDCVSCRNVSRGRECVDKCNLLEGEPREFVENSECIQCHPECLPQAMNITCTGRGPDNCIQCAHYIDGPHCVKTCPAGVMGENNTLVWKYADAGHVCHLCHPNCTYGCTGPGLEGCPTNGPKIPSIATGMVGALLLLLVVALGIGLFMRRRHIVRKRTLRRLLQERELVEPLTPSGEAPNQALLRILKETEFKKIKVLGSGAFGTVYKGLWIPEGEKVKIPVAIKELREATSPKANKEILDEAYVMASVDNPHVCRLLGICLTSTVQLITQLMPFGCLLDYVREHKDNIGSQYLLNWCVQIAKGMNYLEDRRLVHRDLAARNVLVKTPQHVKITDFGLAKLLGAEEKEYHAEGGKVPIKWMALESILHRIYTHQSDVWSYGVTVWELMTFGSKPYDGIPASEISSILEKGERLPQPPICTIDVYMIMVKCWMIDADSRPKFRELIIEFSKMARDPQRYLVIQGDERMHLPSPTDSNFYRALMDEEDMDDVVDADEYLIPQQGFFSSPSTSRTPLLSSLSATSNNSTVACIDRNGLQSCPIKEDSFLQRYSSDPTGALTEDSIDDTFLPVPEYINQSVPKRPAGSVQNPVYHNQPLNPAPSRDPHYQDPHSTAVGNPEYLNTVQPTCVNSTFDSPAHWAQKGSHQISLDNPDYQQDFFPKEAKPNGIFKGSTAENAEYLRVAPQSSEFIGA

| pIC50 [1] | inhibition [2] [%] | pIC50 [3] | pIC50 [4] | inhibition [5] [%] | pIC50 [6] | pIC50 [7] | pIC50 [8] | pIC50 [9] | pIC50 [10] | pIC50 [11] | SMILES |
| --- | --- | --- | --- | --- | --- | --- | --- | --- | --- | --- | --- |
| < 5.00 | 89 | < 5.00 | 7.33 | 90 | < 5.00 | < 5.00 | < 5.00 | – | – | – | COc1cc(Nc2nc(NCc3ccc(/C=C/C(=O)O)cc3)n3ccnc3c2C(N)=O)cc(OC)c1 |
| < 4.90 | – | < 5.00 | 7.06 | – | < 5.00 | < 5.00 | < 5.00 | < 5.00 | < 5.00 | – | CCOC(=O)/C=C/c1ccc(CNc2nc(Nc3cc(OC)cc(OC)c3)c(C(N)=O)c3nccn23)cc1 |
| < 4.60 | – | – | 6.40 | – | – | – | – | – | – | – | COc1cc(Nc2nc(NCc3ccccc3)n3ccnc3c2C(N)=O)cc(OC)c1 |
| – | – | – | – | – | – | – | – | – | – | < 3.30 | CC(=O)N[C@@H](Cc1ccc(OP(=O)(O)O)cc1)C(=O)N[C@@H](CO)c1nc(Cc2ccc(C(F)(F)F)cc2)no1 |
